Assay results reported in patent US20090076092A1, “METHOD FOR DISRUPTING REPRODUCTIVE PERFORMANCE OF ARTHROPODS” (priority 2006, published 2009).

Key:
adult thrips = experiment: Previous study of adult thrips mortality; format: in vivo, Frankliniella occidentalis; details: read-out: adult mortality
Excerpt: (§1) The sub-lethal concentrations or doses used in the various tests for the specific pest species and populations tested in the context of the present invention were estimated from multiple-rate, dose-finding tests to determine the control rates and activity break rates. […] Therefore, depending on the target pest species, either the LC50 or a suitable concentration between LC50 and LC20 was selected as the sub-lethal dose. The specific procedures used to select the respective doses are described in each Test.
Thus, the sub-lethal concentration of Compound 2 was selected to be 10 ppm in the test treatments. Test solutions were prepared by diluting with water to the selected concentration. Treatments included Compound 2 at 10 ppm as well as a control without test compound.

[1] = tested on: diamondback moth (Plutella xylostella); experiment: Test G: number of eggs (fecundity) of adult diamondback moth; format: in vivo; details: 10 ppm, control itself gave very few eggs
Excerpt: For evaluating the reproductive performance effects on diamondback moth (Plutella xylostella), a minimum of 120 larvae of diamondback moth of each sex were used. Male and female individuals of late instar larvae were separated and caged in individual containers containing Chinese kale. Male diamondback moths were identified by a white dot on the abdomen at the late instar larval stage. When pupae emerged, each pupa was caged separately until it emerged as adult.
(§2) In addition, a control without test compound was included.
Groups of 40 newly emerged (<24 hours) moths of the same sex were placed inside a meshed cage. The caged adult moths were then sprayed with the test solution, using a CO2 backpack sprayer at 500 L/Ha. For the control treatment, the adults were sprayed with water at a similar spray volume. The groups of treated individuals were then transferred into a clean container with a source of adult diet (i.e. a cotton wick soaked in 10% sucrose solution). Separate containers were used for different groups of treated insects. One day after treatment, the numbers of live, moribund and dead adults were counted. One live treated male and one live treated female were placed together in a copulation cage, which was a 300 mL clear plastic cup covered with nylon screen supplied with an adult diet source of 10% sucrose solution.
Each pair of virgin adults was a replicate, and each treatment consisted of 10 to 20 replicates. Every day each pair of moths was moved to a new cup supplied with a diet of 10% sucrose solution.
The number of eggs laid per female moth was counted daily during the two days when the female moths actively produced viable eggs. The results, listed in Table G, indicate that no meaningful comparative information can be inferred, as the even the Control provided very few eggs per female moth; this indicates a systemic reproduction problem from unknown causes. However, had the Control worked, we expect to see the reproductive performance effects on diamondback moth.

[2] = tested on: green peach aphid (Myzus persicae Sulzer); experiment: Test B: nymph production by green peach aphid after 24 hours exposure on treated radish plants; format: in vivo; details: for Living (%) / On plant (%): 1 DAT; for Living (%): all aphids alive 24 h after treatment; for On plant (%): all aphids on the treated plant
Protocol: For evaluating reproductive performance effects on green peach aphid (Myzus persicae Sulzer), each test unit consisted of a radish plant grown in a 6 cm×6 cm square pot infested with a mixed population (nymphs and adults) of green peach aphids from a laboratory-reared culture. Each plant was infested with about 100 aphids. Test solutions were prepared and sprayed on the test plants (2 plants per treatment) as described for TEST A. Treatments included Compound 1 at 100 and 500 ppm, Compound 2 at 4 and 6 ppm, and a control without test compound.
Aphids were kept on the treated plants for 24 hours, and then only adult aphids staying on the treated plant were transferred to untreated radish plants grown singly in a 6 cm×6 cm square pots. One test unit or one replicate consisted of a single adult aphid on a radish plant in a pot. The number of nymphs in each replicate was counted 4 and 6 days after treatment. At the higher concentration of each test compound a total of 45 replicates were used, and at the lower concentration of each test compound a total of 30 replicates were used. In addition, prior to transferring aphids singly to the untreated radish plants one day after treatment (1 DAT), the total number of aphids living and those remaining on the treated plant were counted.
The results are listed in Table B. Square-root transformation was done on the number of nymphs produced per adult (female) aphid, and the data were analyzed using analysis of variance (ANOVA) and Fisher's Least Significant Difference (LSD) tests for separation of means.

[3] = tested on: housefly, Musca domestica (L.); experiment: Test A: reproductive performance of adult houseflies after spray at sub-lethal concentration; format: in vivo; details: 2 ppm spray of adults; totaled on the 8th day after treatment
Excerpt: For evaluating housefly, Musca domestica (L.), each test unit consisted of a pair of virgin adult female and male houseflies of similar age (±1 day). To obtain the adult flies used in the study, pupae of approximately the same age (±1 day) were separated by sex, and placed in separate containers until adults emerged.
(§3) The LC20 sub-lethal dose of Compound 2 on the housefly was estimated to be 2 ppm using probit analysis extrapolation based on the preliminary dose-response curves obtained at concentrations of 50, 100, 500 and 1000 ppm. Two treatments consisted of Compound 2 at 2 ppm and a control without test compound. Each treatment had 10 replicates.
After emergence, the adult houseflies were placed in a meshed cage and were sprayed with test solutions using a belt sprayer. Test solutions were applied using a compressed air-propelled (moving) belt sprayer equipped with an 8001E Tee Jet flat fan spray nozzle. The nozzles were positioned at about 20 cm above the test unit, and calibrated at 276 kPa to deliver volumes equivalent to 500 L/ha. […]
Observations of the number of eggs laid per adult female were made daily for 7 days. The cotton wicks containing eggs were removed daily and counted, and then kept in a growth chamber at 26° C., 75% relative humidity and 16 hours of light per day to allow egg hatching and emergence of neonates. […]

housefly = experiment: Dose-finding test for sub-lethal dose on housefly; format: in vivo, Musca domestica; details: probit analysis extrapolation from preliminary dose-response curves at 50, 100, 500 and 1000 ppm
Excerpt: as §1, §3

diamondback moth = experiment: Previous laboratory studies of diamondback moth mortality; format: in vivo; details: Plutella xylostella, read-out: mortality of the diamondback moth (LC20)
Excerpt: as §1, §2

SMILES: CNC(=O)c1cc(C#N)cc(C)c1NC(=O)c1cc(Br)nn1-c1ncccc1Cl [Compound 2, 3-bromo-1-(3-chloro-2-pyridinyl)-N-[4-cyano-2-methyl-6-[(methylamino)-carbonyl]phenyl]-1H-pyrazole-5-carboxamide]
- mortality at 10 ppm (adult thrips): < 50%
- No. of eggs per female moth ([1]; 1 DAT): 0
- No. of eggs per female moth ([1]; 2 DAT): 0.2
- living aphids that did not stay on the plant ([2]; 4 and 6 ppm, one day after treatment): 28-48%
- Living (%) ([2]; 4 ppm): 97.6%
- On plant (%) ([2]; 4 ppm): 72.0%
- No. of nymphs (mean ± SE) ([2]; 4 ppm, 6 DAT, per adult): 6.1 ± 0.6 a
- Living (%) ([2]; 6 ppm): 82.3%
- On plant (%) ([2]; 6 ppm): 51.1%
- Mean number of neonates per female [3]: 16.7
- LC20 sub-lethal dose (housefly): 2 ppm
- mortality at 10 ppm (diamondback moth): ~20%
